Columns and labels:
Acinetobacter pittii [1] = experiment: Ratio of MIC for Acinetobacter genomosp. 3 isolate 103 to MIC for Acinetobacter genomosp. 3 isolate 103 in presence of efflux pump inhibitor PAN; type: functional
Acinetobacter pittii [2] = experiment: Ratio of MIC for Acinetobacter genomosp. 3 isolate 103 to MIC for Acinetobacter genomosp. 3 isolate 103 in presence of efflux pump inhibitor CCCP; type: functional

## C[C@@H](O)[C@H]1C(=O)N2C(C(=O)O)=C(S[C@@H]3CN[C@H](C(=O)N(C)C)C3)[C@H](C)[C@H]12 [MEROPENEM]
Acinetobacter pittii [1]
  Ratio: 4
Acinetobacter pittii [2]
  Ratio: 3

Reference: ChEMBL document CHEMBL1649124, “Genetic variability among ampC genes from acinetobacter genomic species 3” (Antimicrob Agents Chemother, 2009)
